Assay type in all cases: cell-based
For assay [1], the target named is T1, wild-type Androgen Receptor (AR-wt) (Homo sapiens, UniProt P10275).
T1 construct: expressed in transfected cells; host or cells: LNCaP (LNCaP AR (cs))
T1 sequence (P10275 1-920): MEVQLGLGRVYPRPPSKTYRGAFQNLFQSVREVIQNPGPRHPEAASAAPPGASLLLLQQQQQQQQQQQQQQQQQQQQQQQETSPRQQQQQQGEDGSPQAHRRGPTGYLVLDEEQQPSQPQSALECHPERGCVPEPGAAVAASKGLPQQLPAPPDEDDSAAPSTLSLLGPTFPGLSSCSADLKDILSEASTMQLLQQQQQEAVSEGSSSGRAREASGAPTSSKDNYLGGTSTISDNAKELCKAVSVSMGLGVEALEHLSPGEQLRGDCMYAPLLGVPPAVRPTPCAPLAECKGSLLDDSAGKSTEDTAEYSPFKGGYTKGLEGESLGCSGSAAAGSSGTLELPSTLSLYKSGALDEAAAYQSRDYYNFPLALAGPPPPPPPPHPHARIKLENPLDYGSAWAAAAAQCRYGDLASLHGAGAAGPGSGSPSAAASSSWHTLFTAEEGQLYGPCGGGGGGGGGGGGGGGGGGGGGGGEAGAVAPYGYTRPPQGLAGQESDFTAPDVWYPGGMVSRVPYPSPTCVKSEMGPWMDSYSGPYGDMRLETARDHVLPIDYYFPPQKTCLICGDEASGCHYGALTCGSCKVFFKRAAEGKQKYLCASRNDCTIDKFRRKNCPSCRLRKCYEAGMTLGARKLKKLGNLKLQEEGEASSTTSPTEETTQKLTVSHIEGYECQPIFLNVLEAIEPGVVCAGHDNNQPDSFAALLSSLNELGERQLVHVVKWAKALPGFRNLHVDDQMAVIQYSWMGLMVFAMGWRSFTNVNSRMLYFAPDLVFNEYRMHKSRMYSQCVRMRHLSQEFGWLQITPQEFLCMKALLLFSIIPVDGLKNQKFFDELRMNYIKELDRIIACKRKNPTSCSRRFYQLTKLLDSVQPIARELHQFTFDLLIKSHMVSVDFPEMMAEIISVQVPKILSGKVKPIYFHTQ
The assay is described as follows: LNCaP-AR-wt AG reporter assay (ARE firefly luciferase, agonist mode). As to conditions: for Emax: read-out: LNCaP-AR-wt AG MAX % Stim. The method in brief:
(§1)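 LNCaP stable pooled lines expressing ARE-firefly luciferase, in charcoal-stripped serum medium, were exposed to compounds; antagonist mode used agonist at 400 pM (WT) or 600 pM (F876L).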

Assay [2] has as its target T2, F876L mutant Androgen Receptor (AR-F876L) (Homo sapiens, UniProt P10275, F877L).
T2 construct: expressed in transfected cells; host or cells: LNCaP (LNCaP F876L)
T2 sequence (P10275 1-920 F877L): T1 sequence (P10275 1-920) with F877L
The assay is described as follows: LNCaP-AR-F876L AG reporter assay (ARE firefly luciferase, agonist mode). As to conditions: for Emax: read-out: LNCaP-AR-F876L AG MAX % Stim. The method in brief: as §1
For orientation: In a reporter assay the amount or activity of a reporter protein is the signal.

Assay [3] has as its target T2, F876L mutant Androgen Receptor (AR-F876L). The assay is described as follows: LNCaP-AR-F876L ANT reporter assay (ARE firefly luciferase, antagonist mode). To be noted: for Emax: read-out: LNCaP-AR-F876L ANT MAX % Inh; for IC50: read-out: LNCaP-AR-F876L ANT pIC50 (converted). The method in brief:
as §1

Assay [4] addresses T1, wild-type Androgen Receptor (AR-wt). The assay can be described thus: LNCaP-AR-wt ANT reporter assay (ARE firefly luciferase, antagonist mode). To be noted: for IC50: antagonist mode, 400 pM R-1881 challenge, −Log10(IC50 [Molar]), read-out: LNCaP-AR-wt ANT pIC50 (converted); for Emax: read-out: LNCaP-AR-wt ANT MAX % Inh. The method in brief: as §1
Setting [5] is: agonist mode, −Log10(EC50 [Molar]), read-out: LNCaP-AR-wt AG pEC50 (converted).
Setting [6] is: maximum % stimulation (agonist response) over tested concentration range.
[7] abbreviates: agonist mode, −Log10(EC50 [Molar]), read-out: LNCaP-AR-F876L AG pEC50 (converted).
[8] abbreviates: maximum % inhibition of R1881 control response over tested concentration range.

This is an account of results in patent US20180008587A1, “THIOHYDANTOIN ANDROGEN RECEPTOR ANTAGONISTS FOR THE TREATMENT OF CANCER” (Jaressen Pharmaceutica NV, priority 2016, published 2018).

Substitutions are numbered along the chain they refer to. Where two headings read alike, the source gives them in different places.

Regarding `N#Cc1ncc(N2C(=O)C3(CCC3)N(c3ccc(C(=O)NCc4cccnc4)c(F)c3)C2=S)cc1C(F)(F)F` [Cpd 67, 4-[6-[6-cyano-5-(trifluoromethyl)-3-pyridyl]-5-oxo-7-thioxo-6,8-diazaspiro[3.4]octan-8-yl]-2-fluoro-N-(3-pyridylmethyl)benzamide], the EC50 in assay [1] and in assay [2] was above 15100 nM in each case. Also, the Emax in assay [1] was 1.5%; in assay [2], 0.8%; in assay [3] it was 97.4%; in assay [4], 99.2%. In addition, the IC50 in assay [3] is 407 nM; in assay [4], 1260 nM.
With `CCCNC(=O)c1ccc(N2C(=S)N(c3cnc(C#N)c(C(F)(F)F)c3)C(=O)C23CCC3)cc1F` [Cpd 68, 4-[6-[6-cyano-5-(trifluoromethyl)-3-pyridyl]-5-oxo-7-thioxo-6,8-diazaspiro[3.4]octan-8-yl]-2-fluoro-N-propyl-benzamide], the EC50 in assay [1] and in assay [2] was above 15100 nM in each case. For the same molecule, the Emax is 0.2% in assay [1], 0.9% in assay [2], 98% in assay [3] and 96.7% in assay [4]. Further, the figures for the IC50 in assay [3] and in assay [4] were 427 nM and 589 nM, respectively.
In the case of `COc1ccc(N2C(=S)N(c3cnc(C#N)c(C)c3)C(=O)C23CCC3)cc1` [Cpd 69, 5-[8-(4-methoxyphenyl)-5-oxo-7-thioxo-6,8-diazaspiro[3.4]octan-6-yl]-3-methyl-pyridine-2-carbonitrile], the EC50 in assay [1] (setting [5]) and in assay [2] (setting [7]) was above 15100 nM each time. The Emax in assay [1] (setting [6]) worked out at 0.9%; in assay [2] (setting [6]) it was 0.7%; in assay [3] (setting [8]), 99.1%; in assay [4] (setting [8]), 102%. Moreover, the IC50 in assay [3] is 132 nM; in assay [4] it was 282 nM.
For `N#Cc1ncc(N2C(=O)C3(CCC3)N(c3ccccc3)C2=S)cc1C(F)(F)F` [Cpd 70, 5-(5-oxo-8-phenyl-7-thioxo-6,8-diazaspiro[3.4]octan-6-yl)-3-(trifluoromethyl)pyridine-2-carbonitrile], the EC50 in assay [1] and in assay [2] was above 15100 nM in each case. Also, the Emax in assay [1] was 0.3%; in assay [2] it was 0.9%; in assay [3] it was 99.5%; in assay [4], 99.2%. Besides, the IC50 was 513 nM in assay [3] and 741 nM in assay [4].
Take `N#Cc1ncc(N2C(=O)C3(CCC3)N(c3ccc(Oc4ccncn4)cc3)C2=S)cc1C(F)(F)F` [Cpd 71, 5-[5-oxo-8-(4-pyrimidin-4-yloxyphenyl)-7-thioxo-6,8-diazaspiro[3.4]octan-6-yl]-3-(trifluoromethyl)pyridine-2-carbonitrile]: the EC50 in assay [1] and in assay [2] was above 15100 nM in each case. In addition, the Emax in assay [1] is 0.5%; in assay [2] it was 0.9%; in assay [3] it was 97.5%; in assay [4], 98.8%. For the same molecule, the IC50 is 251 nM in assay [3] and 214 nM in assay [4].
For the molecule `N#Cc1ncc(N2C(=O)C3(CCC3)N(c3ccc(C(=O)NCCCN4CCOCC4)c(F)c3)C2=S)cc1C(F)(F)F` [Cpd 72, 4-[6-[6-cyano-5-(trifluoromethyl)-3-pyridyl]-5-oxo-7-thioxo-6,8-diazaspiro[3.4]octan-8-yl]-2-fluoro-N-(3-morpholinopropyl)benzamide], the EC50 in assay [1] and in assay [2] was above 15100 nM throughout. The Emax in assay [1] amounted to 0.3%; in assay [2], 0.6%; in assay [3] it was 101%; in assay [4] it was 102%. The IC50 was 102 nM in assay [3] and 251 nM in assay [4].
For `N#Cc1ncc(N2C(=O)C3(CCC3)N(c3ccc(C(=O)Nc4ccccc4)c(F)c3)C2=S)cc1C(F)(F)F` [Cpd 73, 4-[6-[6-cyano-5-(trifluoromethyl)-3-pyridyl]-5-oxo-7-thioxo-6,8-diazaspiro[3.4]octan-8-yl]-2-fluoro-N-phenyl-benzamide], the EC50 in assay [1] (setting [5]) and in assay [2] (setting [7]) was above 15100 nM throughout. The Emax in assay [1] (setting [6]) amounted to 1.9%; in assay [2] (setting [6]), 0.6%; in assay [3] (setting [8]) it was 99.1%; in assay [4] (setting [8]) it was 99.5%. Moreover, the results for the IC50 in assay [3] and in assay [4] were 417 nM and 759 nM, respectively.
For the molecule `Cc1cc(N2C(=O)C3(CCC3)N(c3ccc(C(=O)Nc4ccc(Cl)cc4)c(F)c3)C2=S)cnc1C#N` [Cpd 74, N-(4-chlorophenyl)-4-[6-(6-cyano-5-methyl-3-pyridyl)-5-oxo-7-thioxo-6,8-diazaspiro[3.4]octan-8-yl]-2-fluoro-benzamide], the EC50 in assay [1] (setting [5]) and in assay [2] (setting [7]) was above 15100 nM in each case. Besides, the Emax in assay [1] (setting [6]) came out at 0.6%; in assay [2] (setting [6]), 1%; in assay [3] (setting [8]), 93.8%; in assay [4] (setting [8]) it was 94.1%. Moreover, the values for the IC50 in assay [3] and in assay [4] were 759 nM and 1150 nM, respectively.
Turning to `Cc1ccc(NC(=O)c2ccc(N3C(=S)N(c4cnc(C#N)c(C)c4)C(=O)C34CCC4)cc2F)cn1` [Cpd 75, 4-[6-(6-cyano-5-methyl-3-pyridyl)-5-oxo-7-thioxo-6,8-diazaspiro[3.4]octan-8-yl]-2-fluoro-N-(6-methyl-3-pyridyl)benzamide], the EC50 in assay [1] and in assay [2] was above 15100 nM in each case. In addition, the Emax in assay [1] is 0.8%; in assay [2], 0.8%; in assay [3] it was 100%; in assay [4], 101%. For the same molecule, the results for the IC50 in assay [3] and in assay [4] were 145 nM and 562 nM, respectively.
Turning to `N#Cc1ncc(N2C(=O)C3(CCC3)N(c3ccc(C(=O)NCc4ccco4)c(F)c3)C2=S)cc1C(F)(F)F` [Cpd 76, 4-[6-[6-cyano-5-(trifluoromethyl)-3-pyridyl]-5-oxo-7-thioxo-6,8-diazaspiro[3.4]octan-8-yl]-2-fluoro-N-(2-furylmethyl)benzamide], the EC50 in assay [1] (setting [5]) and in assay [2] (setting [7]) was above 15100 nM throughout. For the same molecule, the Emax in assay [1] (setting [6]) worked out at 1.9%; in assay [2] (setting [6]) it was 1%; in assay [3] (setting [8]) it was 91.6%; in assay [4] (setting [8]), 97.8%. Also, the IC50 is 851 nM in assay [3] and 1450 nM in assay [4].
